Reference: PubChem BioAssay (NCI)
Several values for one entry are separate records, joined by “and”; a condition that tells them apart may be missing. Equal values may be shown once.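 Briefly, cells in 96-well plates were exposed to five compound concentrations for 48 h, and endpoints were estimated by linear interpolation. GI50 marks 50% less growth. Definition used: TGI = concentration required for complete inhibition of growth.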

Key:
Assay in all cases: growth of human tumour cells (NCI), 48 h
HS 578T breast = system: HS 578T breast
SF-268 CNS = system: SF-268 CNS
NCI-H226 lung = system: NCI-H226 lung
SK-MEL-28 melanoma = system: SK-MEL-28 melanoma
SK-MEL-2 melanoma = system: SK-MEL-2 melanoma
SW-620 colon = system: SW-620 colon
OVCAR-4 ovarian = system: OVCAR-4 ovarian
M14 melanoma = system: M14 melanoma
MDA-N = system: MDA-N
ACHN renal = system: ACHN renal
COLO 205 colon = system: COLO 205 colon
PC-3 prostate = system: PC-3 prostate
RXF 393 renal = system: RXF 393 renal
CAKI-1 renal = system: CAKI-1 renal
SN12C renal = system: SN12C renal
HCC-2998 colon = system: HCC-2998 colon

Structure (SMILES)	TGI (HS 578T breast)	TGI (SF-268 CNS)	TGI (NCI-H226 lung)	TGI (SK-MEL-28 melanoma)	TGI (SK-MEL-2 melanoma)	TGI (SW-620 colon)	TGI (OVCAR-4 ovarian)	TGI (M14 melanoma)	TGI (MDA-N)	TGI (ACHN renal)	TGI (COLO 205 colon)	TGI (PC-3 prostate)	TGI (RXF 393 renal)	TGI (CAKI-1 renal)	TGI (SN12C renal)	TGI (HCC-2998 colon)	GI50 (SK-MEL-28 melanoma)	GI50 (SK-MEL-2 melanoma)	GI50 (MDA-N)	GI50 (PC-3 prostate)
COP(=O)(OC)C(O)/C=C/c1ccco1 (centres undefined)	> 100 µM	> 100 µM	> 100 µM	> 100 µM	> 100 µM	> 100 µM	> 100 µM	> 100 µM	> 100 µM	> 100 µM	> 100 µM	> 100 µM	> 100 µM	> 100 µM	> 100 µM	–	–	–	–	–
O=c1c[n+](-c2ccccc2)[nH]o1	> 100 µM	> 100 µM	–	> 100 µM	> 100 µM	> 100 µM	> 100 µM	> 100 µM	> 100 µM	> 100 µM	> 100 µM	> 100 µM	> 100 µM	> 100 µM	> 100 µM	> 100 µM	–	–	–	–
COc1ccc(-c2oc3cc(OC)c(OC)c(OC)c3c(=O)c2OC)cc1OC	> 100 µM	> 100 µM	> 100 µM	> 100 µM	> 100 µM	> 100 µM	> 100 µM	> 100 µM	> 100 µM	> 100 µM	> 100 µM	> 100 µM	> 100 µM	> 100 µM	> 100 µM	> 100 µM	–	–	–	–
O=C1OC2c3ccccc3C(=O)C2(c2ccccc2)N1c1ccccc1 (centres undefined)	> 200 µM	> 200 µM	> 200 µM	> 200 µM	> 200 µM	> 200 µM	> 200 µM	> 200 µM	> 200 µM	> 200 µM	> 200 µM	> 200 µM	> 200 µM	> 200 µM	> 200 µM	> 200 µM	–	–	–	–
N#CC(C#N)=Cc1ccc(C=C2SC3=C(SCCS3)S2)s1	> 100 µM	> 100 µM	9.73 µM	> 100 µM	> 100 µM	> 100 µM	> 100 µM	> 100 µM	3.03 µM	> 100 µM	> 100 µM	> 100 µM	–	> 100 µM	> 100 µM	> 100 µM	–	–	–	–
COc1cc(/C=C/c2sc3ccccc3[n+]2C)ccc1N(C)C	> 100 µM	33.6 µM	50.6 µM	25.7 µM	8.31 µM and 29.3 µM	25.8 µM	40.1 µM	27.1 µM	22.2 µM	28.6 µM	2.76 µM and 2.86 µM	32.3 µM	33.5 µM	> 100 µM	25.5 µM	53.4 µM	12.4 µM	12.4 µM	7.11 µM	12.8 µM
COCC(=O)OC1CCn2c1nc1c2C(=O)C(C)=C(NC(C)=O)C1=N (centres undefined)	18.8 µM	10.3 µM	33.2 µM	10.6 µM	6.09 µM	6.12 µM	4.89 µM	15 µM	3.23 µM	19.9 µM	37.3 µM	9.01 µM	6.47 µM	23.2 µM	13.4 µM	27.7 µM	–	–	–	–
NC1=NN(c2ccccc2)C2(c3ccncc3C(=O)O)C1C(N)=NN2c1ccccc1 (centres undefined)	> 100 µM	> 100 µM	> 100 µM	> 100 µM	> 100 µM	> 100 µM	> 100 µM	> 100 µM	> 100 µM	> 100 µM	> 100 µM	> 100 µM	> 100 µM	> 100 µM	> 100 µM	> 100 µM	–	–	–	–
CC(C)/C(Cl)=N\OC(=O)Nc1ccc(F)c([N+](=O)[O-])c1	25.1 µM	27.6 µM	50.1 µM	17.4 µM	29.9 µM	7.56 µM	8.99 µM	> 32.4 µM	29.4 µM	3.39 µM	4.36 µM	32.2 µM	33 µM	3.27 µM	16.5 µM	> 100 µM	–	–	–	–
CCN(CC)CCNc1ccc2ncn3c4c(OC)cccc4c(=O)c1c23	30.5 µM	17.6 µM	20.8 µM	21.7 µM	–	15.9 µM	15.4 µM	20.9 µM	17.1 µM	25.2 µM	16.5 µM	17.6 µM	11.6 µM	> 100 µM	17.7 µM	18.6 µM	–	–	–	–
O=C1NC(N/N=C/c2ccccc2)=N/C1=C\c1cccs1	9.94 µM	30.3 µM	25.8 µM	37.7 µM	20.6 µM	> 47.5 µM	> 68.9 µM	> 100 µM	> 25.2 µM	33.5 µM	19.9 µM	26.7 µM	40.7 µM	33.3 µM	46.4 µM	–	–	–	–	–
CC(C)CCNC(=O)c1ccc(CNC(=O)/C=C/c2csc(-c3ccccc3)n2)cc1	> 100 µM	> 100 µM	> 100 µM	> 100 µM	> 100 µM	> 100 µM	> 100 µM	> 100 µM	> 100 µM	> 100 µM	> 100 µM	> 100 µM	73.6 µM	> 100 µM	> 100 µM	> 100 µM	–	–	–	–
Cc1nc(N)c(N2CCN(Cc3ccccc3)CC2)c(=O)[nH]1	> 100 µM	> 100 µM	> 100 µM	> 100 µM	> 100 µM	> 100 µM	–	> 100 µM	> 100 µM	> 100 µM	> 100 µM	> 100 µM	–	–	> 100 µM	> 100 µM	–	–	–	–
CC1(C)CCCCCC(C)(CCCCCCCCCCCO)C1=O (centres undefined)	32.4 µM	30.2 µM	32.3 µM	32 µM	30.4 µM	32.9 µM	28.8 µM	–	32.3 µM	25.7 µM	30.9 µM	30 µM	31.4 µM	28.6 µM	29.9 µM	39.9 µM	–	–	–	–
